Measurements from PubChem BioAssay (NCI).
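Values below derive from 48-hour exposures of cells grown in 96-well plates, with endpoints linearly interpolated between the two concentrations bracketing the appropriate inhibition level. The concentration for 50% growth inhibition is given as GI50. TGI: total growth inhibition.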

Tests used:
Assay in all cases: inhibition of tumour cell growth, NCI panel, 48 h; in the data active = GI50 below about 0.43 µM; inactive = the rest
786-0 renal = system: 786-0 renal
A498 renal = system: A498 renal
ACHN renal = system: ACHN renal
BT-549 breast = system: BT-549 breast
CAKI-1 renal = system: CAKI-1 renal
COLO 205 colon = system: COLO 205 colon
DU-145 prostate = system: DU-145 prostate
HCC-2998 colon = system: HCC-2998 colon
HCT-116 colon = system: HCT-116 colon
HCT-15 colon = system: HCT-15 colon
HL-60(TB) leukemia = system: HL-60(TB) leukemia
HOP-62 NSCLC = system: HOP-62 NSCLC
HOP-92 NSCLC = system: HOP-92 NSCLC
HS 578T breast = system: HS 578T breast
HT29 colon = system: HT29 colon
IGROV1 ovarian = system: IGROV1 ovarian
K-562 leukemia = system: K-562 leukemia
KM12 colon = system: KM12 colon
LOX IMVI melanoma = system: LOX IMVI melanoma
M14 melanoma = system: M14 melanoma
MALME-3M melanoma = system: MALME-3M melanoma
MCF7 breast = system: MCF7 breast
MDA-MB-231 breast = system: MDA-MB-231 breast
MDA-MB-435 = system: MDA-MB-435
MOLT-4 leukemia = system: MOLT-4 leukemia
NCI-H226 lung = system: NCI-H226 lung
NCI-H23 lung = system: NCI-H23 lung
NCI-H460 lung = system: NCI-H460 lung
NCI/ADR-RES ovarian = system: NCI/ADR-RES ovarian
OVCAR-3 ovarian = system: OVCAR-3 ovarian
OVCAR-4 ovarian = system: OVCAR-4 ovarian
OVCAR-5 ovarian = system: OVCAR-5 ovarian
OVCAR-8 ovarian = system: OVCAR-8 ovarian
PC-3 prostate = system: PC-3 prostate
RPMI-8226 leukemia = system: RPMI-8226 leukemia
RXF 393 renal = system: RXF 393 renal
SF-268 CNS = system: SF-268 CNS
SF-295 CNS = system: SF-295 CNS
SF-539 CNS = system: SF-539 CNS
SK-MEL-2 melanoma = system: SK-MEL-2 melanoma
SK-MEL-28 melanoma = system: SK-MEL-28 melanoma
SK-MEL-5 melanoma = system: SK-MEL-5 melanoma
SK-OV-3 ovarian = system: SK-OV-3 ovarian
SN12C renal = system: SN12C renal
SNB-19 CNS = system: SNB-19 CNS
SNB-75 CNS = system: SNB-75 CNS
SR leukemia = system: SR leukemia
SW-620 colon = system: SW-620 colon
T-47D breast = system: T-47D breast
TK-10 renal = system: TK-10 renal
U251 CNS = system: U251 CNS
UACC-62 melanoma = system: UACC-62 melanoma
UO-31 renal = system: UO-31 renal

C/C(=N\NC(=O)c1ccccc1N)c1ccccc1O
57.5 µM: TGI (M14 melanoma)
47.5 µM: TGI (UACC-62 melanoma)
> 100 µM: TGI (A498 renal) | TGI (ACHN renal) | TGI (BT-549 breast) | TGI (CAKI-1 renal) | TGI (COLO 205 colon) | TGI (DU-145 prostate) | TGI (HCC-2998 colon) | TGI (HCT-116 colon) | TGI (HCT-15 colon) | TGI (HL-60(TB) leukemia) | TGI (HOP-62 NSCLC) | TGI (HOP-92 NSCLC) | TGI (HS 578T breast) | TGI (HT29 colon) | TGI (IGROV1 ovarian) | TGI (K-562 leukemia) | TGI (KM12 colon) | TGI (LOX IMVI melanoma) | TGI (MALME-3M melanoma) | TGI (MCF7 breast) | TGI (MDA-MB-231 breast) | TGI (MDA-MB-435) | TGI (MOLT-4 leukemia) | TGI (NCI-H226 lung) | TGI (NCI-H23 lung) | TGI (NCI-H460 lung) | TGI (NCI/ADR-RES ovarian) | TGI (OVCAR-3 ovarian) | TGI (OVCAR-4 ovarian) | TGI (OVCAR-5 ovarian) | TGI (OVCAR-8 ovarian) | TGI (PC-3 prostate) | TGI (RPMI-8226 leukemia) | TGI (RXF 393 renal) | TGI (SF-268 CNS) | TGI (SF-295 CNS) | TGI (SF-539 CNS) | TGI (SK-MEL-2 melanoma) | TGI (SK-MEL-28 melanoma) | TGI (SK-OV-3 ovarian) | TGI (SN12C renal) | TGI (SNB-19 CNS) | TGI (SNB-75 CNS) | TGI (SW-620 colon) | TGI (T-47D breast) | TGI (TK-10 renal) | TGI (U251 CNS) | TGI (UO-31 renal)
80.4 µM: TGI (786-0 renal)
inactive: GI50 (786-0 renal) 5.37 µM | GI50 (A498 renal) 10.4 µM | GI50 (ACHN renal) 2.63 µM | GI50 (BT-549 breast) 14.9 µM | GI50 (CAKI-1 renal) 2.34 µM | GI50 (COLO 205 colon) 3.23 µM | GI50 (DU-145 prostate) 4.67 µM | GI50 (HCC-2998 colon) 5.8 µM | GI50 (HCT-116 colon) 2.4 µM | GI50 (HCT-15 colon) 1.44 µM | GI50 (HL-60(TB) leukemia) 3.01 µM | GI50 (HOP-62 NSCLC) 4.4 µM | GI50 (HOP-92 NSCLC) 24.7 µM | GI50 (HS 578T breast) 16.7 µM | GI50 (HT29 colon) 8.58 µM | GI50 (IGROV1 ovarian) 3.56 µM | GI50 (K-562 leukemia) 3.72 µM | GI50 (KM12 colon) 3.92 µM | GI50 (LOX IMVI melanoma) 4.09 µM | GI50 (M14 melanoma) 4.29 µM | GI50 (MALME-3M melanoma) 19.4 µM | GI50 (MCF7 breast) 2.71 µM | GI50 (MDA-MB-231 breast) 5.24 µM | GI50 (MDA-MB-435) 8.53 µM | GI50 (MOLT-4 leukemia) 3.17 µM | GI50 (NCI-H226 lung) 5.14 µM | GI50 (NCI-H23 lung) 7.33 µM | GI50 (NCI-H460 lung) 1.65 µM | GI50 (NCI/ADR-RES ovarian) 4.52 µM | GI50 (OVCAR-3 ovarian) 2.79 µM | GI50 (OVCAR-4 ovarian) 2.14 µM | GI50 (OVCAR-5 ovarian) 4.45 µM | GI50 (OVCAR-8 ovarian) 3.16 µM | GI50 (PC-3 prostate) 6.95 µM | GI50 (RPMI-8226 leukemia) 9.51 µM | GI50 (RXF 393 renal) 11.2 µM | GI50 (SF-268 CNS) 3.05 µM | GI50 (SF-295 CNS) 3.23 µM | GI50 (SF-539 CNS) 3.26 µM | GI50 (SK-MEL-2 melanoma) 12.5 µM | GI50 (SK-MEL-28 melanoma) 8.44 µM | GI50 (SK-MEL-5 melanoma) 3.83 µM | GI50 (SK-OV-3 ovarian) 13.4 µM | GI50 (SN12C renal) 5.25 µM | GI50 (SNB-19 CNS) 9.72 µM | GI50 (SNB-75 CNS) > 100 µM | GI50 (SR leukemia) 2.83 µM | GI50 (SW-620 colon) 5.05 µM | GI50 (T-47D breast) 2.6 µM | GI50 (TK-10 renal) 1.5 µM | GI50 (U251 CNS) 2.21 µM | GI50 (UACC-62 melanoma) 3.39 µM | GI50 (UO-31 renal) 1.94 µM
57.7 µM: TGI (SK-MEL-5 melanoma)
66.6 µM: TGI (SR leukemia)
